Results taken from ChEMBL document CHEMBL4017473, “Discovery of LRRK2 inhibitors by using an ensemble of virtual screening methods” (Bioorg Med Chem Lett, 2017).
pIC50, pKi: −log10 of the molar value.

What was measured:
[1] = target: Leucine-rich repeat serine/threonine-protein kinase 2 (Homo sapiens, UniProt Q5S007); assay: Inhibition of full length wild-type LRRK2 (unknown origin) using biotinylated ezrin/radaxin/meosin peptide as substrate measured after 1 hr
[2] = target: Leucine-rich repeat serine/threonine-protein kinase 2 (Homo sapiens, UniProt Q5S007, G2019S); assay: Inhibition of LRRK2 G2019S mutant (unknown origin) using biotinylated ezrin/radaxin/meosin peptide as substrate measured after 1 hr
Sequence of Leucine-rich repeat serine/threonine-protein kinase 2 (Homo sapiens, UniProt Q5S007, G2019S) (Q5S007 whole entry G2019S): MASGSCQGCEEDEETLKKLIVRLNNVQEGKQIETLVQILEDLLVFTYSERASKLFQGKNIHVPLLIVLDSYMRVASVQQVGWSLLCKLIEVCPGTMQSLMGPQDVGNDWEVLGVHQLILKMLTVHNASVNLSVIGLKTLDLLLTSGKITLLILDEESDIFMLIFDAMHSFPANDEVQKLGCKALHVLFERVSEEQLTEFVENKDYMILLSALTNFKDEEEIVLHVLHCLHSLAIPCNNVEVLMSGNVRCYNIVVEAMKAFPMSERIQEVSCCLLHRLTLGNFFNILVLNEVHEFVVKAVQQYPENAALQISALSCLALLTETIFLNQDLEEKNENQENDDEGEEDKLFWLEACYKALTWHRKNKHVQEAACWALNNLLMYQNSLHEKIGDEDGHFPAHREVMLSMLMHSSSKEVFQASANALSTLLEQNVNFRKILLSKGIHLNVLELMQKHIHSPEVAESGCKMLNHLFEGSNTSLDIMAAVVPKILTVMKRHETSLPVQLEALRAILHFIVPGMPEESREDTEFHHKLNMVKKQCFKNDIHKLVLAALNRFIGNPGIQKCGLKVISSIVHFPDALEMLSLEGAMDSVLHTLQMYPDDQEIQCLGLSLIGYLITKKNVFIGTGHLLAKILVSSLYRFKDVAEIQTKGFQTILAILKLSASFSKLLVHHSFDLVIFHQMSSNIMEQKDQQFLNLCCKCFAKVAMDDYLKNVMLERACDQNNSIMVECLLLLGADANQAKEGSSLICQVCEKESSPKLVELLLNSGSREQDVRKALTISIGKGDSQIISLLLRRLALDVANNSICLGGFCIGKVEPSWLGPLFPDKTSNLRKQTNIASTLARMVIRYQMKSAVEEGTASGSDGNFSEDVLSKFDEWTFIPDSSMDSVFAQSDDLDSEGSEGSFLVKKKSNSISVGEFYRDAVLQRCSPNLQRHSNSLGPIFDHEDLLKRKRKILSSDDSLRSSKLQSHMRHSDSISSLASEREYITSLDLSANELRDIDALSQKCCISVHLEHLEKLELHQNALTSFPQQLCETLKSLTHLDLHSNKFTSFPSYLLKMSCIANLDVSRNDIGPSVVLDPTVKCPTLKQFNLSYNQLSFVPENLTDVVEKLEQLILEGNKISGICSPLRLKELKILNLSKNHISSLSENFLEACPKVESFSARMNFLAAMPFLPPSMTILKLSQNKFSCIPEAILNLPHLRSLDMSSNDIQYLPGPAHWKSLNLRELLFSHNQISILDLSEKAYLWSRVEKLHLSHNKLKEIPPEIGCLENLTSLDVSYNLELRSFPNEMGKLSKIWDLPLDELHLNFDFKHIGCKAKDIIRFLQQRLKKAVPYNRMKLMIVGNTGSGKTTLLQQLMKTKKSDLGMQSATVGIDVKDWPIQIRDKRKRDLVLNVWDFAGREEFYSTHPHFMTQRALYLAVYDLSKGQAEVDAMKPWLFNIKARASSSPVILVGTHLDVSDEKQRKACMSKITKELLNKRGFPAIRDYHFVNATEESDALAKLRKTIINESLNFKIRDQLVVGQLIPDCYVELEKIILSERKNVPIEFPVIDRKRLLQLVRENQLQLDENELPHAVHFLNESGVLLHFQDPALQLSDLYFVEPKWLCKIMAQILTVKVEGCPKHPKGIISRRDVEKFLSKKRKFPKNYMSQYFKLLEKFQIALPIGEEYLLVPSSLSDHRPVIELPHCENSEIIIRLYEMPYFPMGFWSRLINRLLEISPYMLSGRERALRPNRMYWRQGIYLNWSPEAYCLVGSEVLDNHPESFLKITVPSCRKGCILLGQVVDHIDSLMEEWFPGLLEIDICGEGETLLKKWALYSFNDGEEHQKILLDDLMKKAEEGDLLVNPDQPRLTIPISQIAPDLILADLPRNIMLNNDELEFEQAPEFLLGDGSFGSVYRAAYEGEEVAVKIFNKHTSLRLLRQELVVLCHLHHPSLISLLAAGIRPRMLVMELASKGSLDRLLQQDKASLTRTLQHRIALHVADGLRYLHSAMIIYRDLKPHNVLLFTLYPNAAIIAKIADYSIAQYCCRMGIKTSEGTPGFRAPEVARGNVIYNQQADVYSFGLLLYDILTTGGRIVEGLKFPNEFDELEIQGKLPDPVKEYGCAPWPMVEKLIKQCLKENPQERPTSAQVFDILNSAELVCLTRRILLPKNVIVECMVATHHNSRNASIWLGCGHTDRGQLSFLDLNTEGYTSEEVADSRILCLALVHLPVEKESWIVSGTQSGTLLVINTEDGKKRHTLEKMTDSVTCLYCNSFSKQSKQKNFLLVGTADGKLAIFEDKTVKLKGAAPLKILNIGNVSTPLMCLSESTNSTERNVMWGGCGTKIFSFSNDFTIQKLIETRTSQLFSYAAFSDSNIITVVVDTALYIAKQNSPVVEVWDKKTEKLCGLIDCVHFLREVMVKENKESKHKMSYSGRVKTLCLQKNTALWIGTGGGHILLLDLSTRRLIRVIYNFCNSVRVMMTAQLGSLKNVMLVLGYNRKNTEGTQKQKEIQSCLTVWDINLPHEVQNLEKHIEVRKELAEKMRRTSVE

Sequence of Leucine-rich repeat serine/threonine-protein kinase 2 (Homo sapiens, UniProt Q5S007) (Q5S007 whole entry): as the sequence (Q5S007 whole entry G2019S) above, with S2019G counted along it

| Structure (SMILES) | pIC50 [1] | pIC50 [2] | pKi [1] |
| --- | --- | --- | --- |
| CCOc1ccc(Nc2nc(N3CCOCC3)c3nc[nH]c3n2)cc1 | 6.45 | 6.45 |  |
| O=c1[nH]ccc2nc(N3CCC(O)CC3)nc(Nc3cccc(C(F)(F)F)c3)c12 |  |  | 7.27 |
| NC(=O)c1ccc(Nc2nc(N3CCOCC3)c3ccccc3n2)cc1 | 6.08 | 6.20 |  |
| Clc1c[nH]c2ncc(-c3cncc(N4CCOCC4)n3)cc12 |  | ≥ 6.30 |  |
| CCn1c(NC(=O)c2ccnc(-n3ccnc3)c2)nc2ccccc21 | 6.46 | 6.56 |  |
| COc1cccc(Nc2nc(NCCO)c3nc[nH]c3n2)c1 | 7.08 | 7.32 |  |
| CN(C)S(=O)(=O)c1ccc(C(=O)Nc2nc3ccccc3n2-c2ccccc2)o1 | < 5.00 | < 5.00 |  |

More lines, now with the values ahead:

| pIC50 [1] | pIC50 [2] | pKi [1] | Structure (SMILES) |
| --- | --- | --- | --- |
| 8.00 |  |  | Cc1ccccc1Nc1nc2ccc(-c3cc(C)c(O)c(C)c3)cn2n1 |
| 8.89 | 8.72 |  | COc1cc(N2CCOCC2)ccc1Nc1ncc(F)c(Nc2ccccc2NS(C)(=O)=O)n1 |
| ≥ 8.22 |  |  | C[C@@H](Nc1c(C(N)=O)nnc2cc(-c3ccncc3)ccc12)C1CC1 |
| 8.52 |  |  | c1cc(-c2n[nH]c3ccnc(OC4CCOCC4)c23)cc(N2CCCC2)n1 |
